Results published in US11358933B2, “Compounds and methods for inhibiting CYP26 enzymes” (Queen's University at Kingston, priority 2017, dated 2022).

What was measured:
[1] = tested on: Cyp26a1-luc construct in MCF-7 cells; assay: Retinoid activity assay, Cyp26a1-luc reporter in MCF-7 cells; type: cell-based; settings: for Rel. Luciferase Activity (mean): 24 hours, firefly relative to Renilla luciferase
Text: This retinoid activity assay measures the ability of test compounds to induce expression of a transiently transfected RA sensitive reporter construct. In this assay, MCF-7 cells are transfected with a construct comprising an upstream promoter of the CYP26A1 gene containing 2 RA response elements driving expression of firefly luciferase (pCYP26A1-luc). Since CYP26A1 is highly inducible by RA in these cells, this construct serves as a sensitive reporter of retinod-like transcriptional activity.
MCF-7 cells were maintained in a RPMI-1640 medium containing 10% FBS. Exponentially growing cells were harvested by incubation in trypsin. Cells were then collected and plated in 24-well plates at 50,000 cells/well. Once cells reached 80-90% confluence (e.g., the next day), cells were transfected with two plasmids. The first plasmid was CYP26A1-luc construct (375 ng). The second plasmid was a control plasmid comprising the Renilla luciferase gene driven by constitutive thymidine kinase promoter (pRL-tk) (25 ng). Transfection was performed using FuGene 6 transfection reagent (Promega) with a 1:3 ratio of DNA:FuGene. 24 hours after transfection, cells were treated with test compounds diluted in DMSO in triplicate at 0.1, 1 and 10 μM final concentrations. As a positive control for reporter activation, cells were also treated with RA diluted in DMSO at the same concentrations listed above. DMSO treatment alone served as a negative control. After 24 hours of treatment, cells were harvested in passive lysis buffer (Promega) and luciferase activity in cell lysates were read using a luminometer. Data are expressed as the activity of firefly luciferase relative to Renilla luciferase (see Tables 3-5). For CYP26A1 inhibitor compounds, no activation of the reporter was detected, while the related retinoid-like compound induces luciferase expression.

[2] = target: CYP26A1 (Homo sapiens (Human), UniProt O43174); assay: Cell-based inhibitor assay ([3H]-RA metabolism), CYP26A1 stably transfected HeLa cells
Experimental: CYP26A1 or CYP26B1 stably transfected HeLa cells were maintained in Minimum Essential Medium (MEM) containing 10% fetal bovine serum (FBS) and 100 μg/mL hygromycin. Exponentially growing cells were harvested by incubation in trypsin. Cells were then collected and re-plated in 48-well culture plates at 5×10^5 cells in 0.2 mL of culture medium containing 0.05 μCi [^3H]-RA in the presence or absence of increasing concentrations of a test compound. The test compounds were diluted in dimethyl sulfoxide (DMSO) and then added in duplicate to wells at 0.01, 0.1, 1, 10 and 100 μM final concentration. As a positive control for inhibition of RA metabolism, cells were also incubated with ketoconazole at the same concentrations as above. Cells were incubated for 3 hours at 37° C. Retinoids were then extracted using the procedure of Bligh, et al., (1959), Canadian Journal of Biochemistry 37, 911-917, which was modified by using dichloromethane instead of chloroform. Each sample's water soluble radioactivity level was quantified using a β-scintillation counter (using Ecolume scintillation fluid, available from MP Biomedicals of Solon, Ohio, USA). IC50 values represented the concentration of inhibitor required to inhibit all trans-RA metabolism by 50%, and were derived from log transformed data.

[3] = tested on: MC3T3 cells; assay: RA metabolism by MC3T3 pre-osteoblasts; type: cell-based, mouse
Experimental: (§1) These experiments are to assess the ability of primary cells, or cell lines to metabolize RA, and to determine the effect of inhibition of CYP26A1 or CYP26B1 on this ability. For these experiments, cells are plated into 48-well plates and treated with a radiolabeled (^3H) RA. The extent of conversion of this labeled RA to water soluble metabolites is determined as above for in the cell-based inhibitor assay. Primary human bone marrow stromal cells (available from Lonza) were cultured in MyeloCult (available from Stem Cell Technologies, Vancouver, Canada). Mouse OP9 bone marrow stromal cells and MC3T3 pre-osteoblasts were cultured as above. Cells are plated in the appropriate culture medium and allowed to form a monolayer. Cells are then pre-treated with either DMSO (vehicle control) or RA (1 μM) for 24 hours to induce CYP26 expression. Vehicle, and RA induced cells are then exposed to ^3H-RA in the presence or absence of test CYP26 inhibitor to examine the effects on RA metabolism. Cells are incubated for 3 hours with labeled RA, and metabolites extracted and analyzed as above.

[4] = tested on: primary human bone marrow stromal cells; assay: RA metabolism by primary human bone marrow stromal cells; type: cell-based; settings: pre-treated with DMSO or 1 μM RA 24 hours; 1 μM compound (FIG. 5)
Experimental: as §1

[5] = tested on: human AML THP-1 cells; assay: Leukemia cell differentiation by FACS (PE-CD11b), THP-1 cells with or without OP9 stroma; type: cell-based
Experimental: Many human non-APL AML cell lines are sensitive to RA-induced differentiation. However, co-culture of leukemic cells with bone marrow stromal cells can block this effect of RA. This assay tests the ability of CYP26 inhibitor compounds to overcome the protective effect that stromal cells have on leukemic cell differentiation. For these experiments, OP9 mouse bone marrow stromal cells are grown MEM-α containing 20% FBS, in 24 well plates until a cell monolayer is formed. OP9 cells are then irradiated (15Gy) using a GammaCell 20 cesium-137 source (located at Queen's University) in order to induce growth arrest. Leukemic cells are then added to the irradiated monolayers, or control wells without OP9 cells. AML cell lines (150,000 cells) are then plated onto OP9 monolayers in their appropriated growth medium; THP-1 RPMI-1640 medium containing 10% FBS; MDSL, RPMI-1640 medium containing 10% FBS and 10 ng/ml recombinant human IL-3; Kasumi-1, RPMI-1640 containing 20% FBS; MV4-11, IMDM containing 10% FBS. Cells are then treated for 72 hours with DMSO (vehicle control), RA (0.1 μM for THP-1 and MV4-11 cells, and 1 μM for Kasumi-1 cells), test CYP26 inhibitor compound, or the combination of RA and inhibitor compound. After the treatment period, leukemic cells are collected and stained with fluorophore labeled antibodies against cell surface antigens indicative of myeloid differentiation (PE-CD11b), or of stem cell populations (FITC-CD34, PE-CD38); all antibodies are available from BD Biosciences. Stained cells are then sorted by FACS in a BD FACS Aria 3 flow cytometer (Queen's University) using FACS Diva software, to assess percentage of cells that are CD11b^+, the relative expression levels of CD11b (by median fluorescence intensity—MFI), or percentage of CD34^+CD38^− leukemic stem cells (LSCs). Results are typically presented as the average of triplicates.

[6] = tested on: RA target genes in primary human bone marrow cells; assay: RA target gene expression in primary human bone marrow stromal cells; type: cell-based; settings: co-treatment with RA

Sequence of CYP26A1 (O43174 whole entry): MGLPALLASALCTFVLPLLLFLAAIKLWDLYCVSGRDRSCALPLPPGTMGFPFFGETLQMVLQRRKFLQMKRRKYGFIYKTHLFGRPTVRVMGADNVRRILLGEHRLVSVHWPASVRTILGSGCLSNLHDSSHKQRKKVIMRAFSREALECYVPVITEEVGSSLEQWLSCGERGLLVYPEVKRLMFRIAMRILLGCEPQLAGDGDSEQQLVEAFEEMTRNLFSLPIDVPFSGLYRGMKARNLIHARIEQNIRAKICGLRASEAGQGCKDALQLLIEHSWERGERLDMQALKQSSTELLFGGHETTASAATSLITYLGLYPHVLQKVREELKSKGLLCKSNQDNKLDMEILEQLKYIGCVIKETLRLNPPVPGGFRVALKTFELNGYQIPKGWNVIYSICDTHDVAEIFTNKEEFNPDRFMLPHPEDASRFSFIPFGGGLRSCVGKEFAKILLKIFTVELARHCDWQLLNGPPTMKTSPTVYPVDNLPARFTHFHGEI

## CC(C)(C)c1cccc(-c2cc3cc(/C=C/C(=O)O)ccc3[nH]2)c1 [Compound 026]
[1]
  Agonist activity in luciferase reporter transactivation experiment: did not show agonist activity
[1]; 0.1 μM
  Rel. Luciferase Activity (mean): .0522
[1]; 1 μM
  Rel. Luciferase Activity (mean): .0472
[1]; 10 μM
  Rel. Luciferase Activity (mean): .0678
[2]; FIG. 1
  CYP26A1 inhibition compared with ketoconazole: comparable to ketoconazole
[2]; HeLa cell-based assay, 3 hours
  IC50: 7 µM
[2]; IC50 relative to ketoconazole
  CYP26A1 Rel. to keto: 4.4
[3]
  RA metabolism, basal and RA-induced: block basal as well as RA-induced RA metabolism in these cells in a dose-dependent manner
[4]
  RA metabolism, basal and RA-induced: efficiently blocked both basal and RA-induced RA metabolism
[5]; 0.1 μM RA plus 1 μM compound, OP9 stroma present, 72 hours
  PE-CD11b MFI: greatly enhanced CD11b MFI
[5]; in the presence of stroma
  Sensitization to low doses of RA: sensitized THP-1 cells to low doses of RA
[6]
  Expression of RA target genes in response to RA, co-treatment: greatly enhanced and prolonged expression of RA target genes
